Reference: patent publication US11530237B2, “Compositions and methods for treating CNS disorders” (Sage Therapeutics, Inc., priority 2014, dated 2022)

Experiments:
α1β2γ2 GABAA receptors = α1β2γ2 GABAA receptors (Homo sapiens (Human), UniProt P14867+P47870); test: Patch clamp electrophysiology (QPatch) of recombinant α1β2γ2 GABAA receptors in LTK cells; type: cell-based; settings: 10 μM test article, GABA EC20 = 2 μM; for Emax at 10 µM: read-out: GABA (α1β2γ2) Qpatch in Ltk, % efficacy at 10 μM
Protocol: (§1) Cellular electrophysiology is used to measure the pharmacological properties of our GABAA receptor modulators in heterologous cell systems. Each compound is tested for its ability to affect GABA mediated currents at a suhmaximal agonist dose (GABA EC20=2 μM). LTK cells are stably transfected with the α1β2γ2 subunits of the GABA receptor and CHO cells are transiently transfected with the α4β3δ subunits via the Lipofecatamine method. Cells were passaged at a confluence of about 50-80% and then seeded onto 35 mm sterile culture dishes containing 2 ml culture complete medium without antibiotics or antimycotics. Confluent clusters of cells are electrically coupled (Pritchett et al., Science, 1988, 242, 1306-1308). Because responses in distant cells are not adequately voltage clamped and because of uncertainties about the extent of coupling (Verdoom et al., Neuron 1990, 4, 919-928), cells were cultivated at a density that enables the recording of single cells (without visible connections to other cells).
(§2) Whole cell currents were measured with HEKA EPC-10 amplifiers using PatchMaster software or by using the high throughput QPatch platform (Sophion). Bath solution for all experiments contained (in mM): NaCl 137 mM, KCl 4 mM, CaCl2 1.8 mM, MgCl2 1 mM, HEPES 10 mM, D-Glucose 10 mM, pH (NaOH) 7.4. In some cases 0.005% cremophor was also added. Intracellular (pipette) solution contained: KCl 130 mM, MgCl2 1 mM, Mg-ATP 5 mM, HEPES 10 mM, EGTA 5 mM, pH 7.2. During experiments, cells and solutions were maintained at room temperature (19° C.-30° C.). For manual patch clamp recordings, cell culture dishes were placed on the dish holder of the microscope and continuously perfused (1 ml/min) with bath solution. After formation of a Gigaohm seal between the patch electrodes and the cell (-ipette resistance range: 2.5 MΩ-6.0 MΩ; seal resistance range:>1 GΩ) the cell membrane across the pipette tip was ruptured to assure electrical access to the cell interior (whole-cell patch-configuration). For experiments using the QPatch system, cells were transferred as suspension to the QPatch system in the bath solution and automated whole cell recordings were performed.
(§3) Cells were voltage clamped at a holding potential of −80 mV. For the analysis of test articles, GABA receptors were stimulated by 2 μM GABA after sequential pre-incubation of increasing concentrations of the test article. Pre-incubation duration was 30 s and the duration of the GABA stimulus was 2s. Test articles were dissolved in DMSO to form stock solutions (10 mM). Test articles were diluted to 0.01, 0.1, 1, and 10 μM in bath solution. All concentrations of test articles were tested on each cell. The relative percentage potentiation was defined as the peak amplitude in response to GABA EC20 in the presence of the test article divided by the peak amplitude in response to GABA EC20 alone, multiplied by 100. For Table 2. GABAA receptors α1β2γ2 and α4β3δ% efficacy: “A” 10-100, “B”>100-500, “C”>500; D indicates the data is not available or has not been determined.

α4β3δ GABAA receptors = α4β3δ GABAA receptors (Homo sapiens (Human), UniProt P28472+P48169); test: Patch clamp electrophysiology (manual patch) of recombinant α4β3δ GABAA receptors in CHO cells; type: cell-based; settings: 10 μM test article, GABA EC20 = 2 μM, read-out: GABA (α4β3δ) Manual patch in CHO, % efficacy at 10 μM
Protocol: as §1, §2, §3

[1] = target: [35S]-TBPS binding, rat brain cortical membranes; test: Steroid inhibition of TBPS binding ([35S]-TBPS radioligand displacement); settings: 3 nM [35S]-TBPS, 5 μM GABA
Protocol: TBPS binding assays using rat brain cortical membranes in the presence of 5 μM GABA has been described (Gee et al, J. Pharmacol. Exp. Then 1987, 241, 346-353; Hawkinson et al, Mol. Pharmacol. 1994, 46, 977-985; Lewin, A. H et al., Mol. Pharmacol. 1989, 35, 189-194).
Briefly, cortices are rapidly removed following decapitation of carbon dioxide-anesthetized Sprague-Dawley rats (200-250 g). The cortices are homogenized in 10 volumes of […] using a glass/teflon homogenizer and centrifuged at 1500×g for 10 min at 4° C. The resultant supernatants are centrifuged at 10,000×g for 20 min at 4° C. to obtain the P2 pellets. The P2 pellets are resuspended in 200 mM NaCl/50 mM Na—K phosphate pH 7.4 buffer and centrifuged at 10,000×g for 10 min at 4° C. This washing procedure is repeated twice and the pellets are resuspended in 10 volumes of buffer. Aliquots (100 μL) of the membrane suspensions are incubated with 3 nM [^35S]-TBPS and 5 μL aliquots of test drug dissolved in dimethyl sulfoxide (DMSO) (final 0.5%) in the presence of 5 μM GABA. The incubation is brought to a final volume of 1.0 mL with buffer. […] Following a 90 min incubation at room temp, the assays are terminated by filtration through glass fiber filters (Schleicher and Schuell No. 32) using a cell harvester (Braudel) and rinsed three times with ice-cold buffer. Filter bound radioactivity is measured by liquid scintillation spectrometry. Non-linear curve fitting of the overall data for each drug averaged for each concentration is done using Prism (GraphPad).
Various compounds are or can be screened to determine their potential as modulators of [^35S]-TBPS binding in vitro. These assays are or can be performed in accordance with the above discussed procedures.

Row | Structure (SMILES) | Emax at 10 µM (α1β2γ2 GABAA receptors) [%] | Emax at 10 µM (α4β3δ GABAA receptors) [%] | IC50 [1] [nM] | GABA (α1β2γ2) Qpatch in Ltk, % efficacy at 10 μM (α1β2γ2 GABAA receptors)
1 | CO[C@H]1C[C@@]2(C)[C@@H](CC[C@@H]3[C@@H]2CC[C@]2(C)[C@@H](C(=O)Cn4nccn4)CC[C@@H]32)C[C@@H]1O [Compound 2] | 100 to 500 | 100 to 500 | – | –
2 | C[C@H](C(=O)[C@H]1CC[C@H]2[C@@H]3CC[C@H]4C[C@](C)(O)CC[C@]4(C)[C@H]3CC[C@]12C)n1nnc2ccccc21 [Compound 100, (R)-2-(1H-benzo[d][1,2,3]triazol-1-yl)-1-((3R,5S,8R,9S,10S,13S,14S,17S)-3-hydroxy-3,10,13-trimethylhexadecahydro-1H-cyclopenta[a]phenanthren-17-yl)propan-1-one] | – | – | > 500 | –
3 | C[C@@H](C(=O)[C@H]1CC[C@H]2[C@@H]3CC[C@H]4C[C@](C)(O)CC[C@]4(C)[C@H]3CC[C@]12C)n1nnc2ccccc21 [Compound 101, (S)-2-(1H-benzo[d][1,2,3]triazol-1-yl)-1-((3R,5S,8R,9S,10S,13S,14S,17S)-3-hydroxy-3,10,13-trimethylhexadecahydro-1H-cyclopenta[a]phenanthren-17-yl)propan-1-one] | – | – | 50 to 100 | –
4 | CC(C)(C(=O)[C@H]1CC[C@H]2[C@@H]3CC[C@H]4C[C@](C)(O)CC[C@]4(C)[C@H]3CC[C@]12C)n1nnc2ccccc21 [Compound 102, 2-(1H-benzo[d][1,2,3]triazol-1-yl)-1-((3R,5S,8R,9S,10S,13S,14S,17S)-3-hydroxy-3,10,13-trimethylhexadecahydro-1H-cyclopenta[a]phenanthren-17-yl)-2-methylpropan-1-one] | – | – | > 500 | –
5 | C[C@@]1(O)CC[C@@]2(C)[C@@H](CC[C@@H]3[C@@H]2CC[C@]2(C)[C@@H](C(=O)Cn4nc5ccc(F)c(F)c5n4)CC[C@@H]32)C1 [Compound 108, 2-(4,5-difluoro-2H-benzo[d][1,2,3]triazol-2-yl)-1-((3R,5S,8R,9S,10S,13S,14S,17S)-3-hydroxy-3,10,13-trimethylhexadecahydro-1H-cyclopenta[a]phenanthren-17-yl)ethanone] | 100 to 500 | – | 10 to 50 | –
6 | C[C@@]1(O)CC[C@@]2(C)[C@@H](CC[C@@H]3[C@@H]2CC[C@]2(C)[C@@H](C(=O)Cn4nnc5ccc(Cl)c(F)c54)CC[C@@H]32)C1 [Compound 113] | – | – | 10 to 50 | B (>100-500)
7 | C[C@@]1(O)CC[C@@]2(C)[C@@H](CC[C@@H]3[C@@H]2CC[C@]2(C)[C@@H](C(=O)Cn4ncnn4)CC[C@@H]32)C1 [Compound 118] | 100 to 500 | > 500 | – | –
8 | C[C@@]1(O)CC[C@@]2(C)[C@@H](CC[C@@H]3[C@@H]2CC[C@]2(C)[C@@H](C(=O)Cn4ccc(C#N)n4)CC[C@@H]32)C1 [Compound 121] | > 500 | > 500 | – | –
9 | C[C@@]1(O)CC[C@@]2(C)[C@@H](CC[C@@H]3[C@@H]2CC[C@]2(C)[C@@H](C(=O)Cn4nnc5cc(F)c(F)cc54)CC[C@@H]32)C1 [Compound 124] | 100 to 500 | > 500 | – | –
10 | C[C@@]1(O)CC[C@@]2(C)[C@H](CC[C@@H]3[C@@H]2CC[C@]2(C)[C@@H](C(=O)Cn4cc(Cl)cn4)CC[C@@H]32)C1 [Compound 133] | 100 to 500 | > 500 | – | –
11 | C[C@@]1(O)CC[C@@]2(C)[C@H](CC[C@@H]3[C@@H]2CC[C@]2(C)[C@@H](C(=O)Cn4cc(C(F)(F)F)cn4)CC[C@@H]32)C1 [Compound 134] | > 500 | > 500 | – | –
12 | C[C@@]1(O)CC[C@@]2(C)[C@@H](CC[C@@H]3[C@@H]2CC[C@]2(C)[C@@H](C(=O)Cn4cnc(C#N)c4)CC[C@@H]32)C1 [Compound 138] | – | – | 100 to 500 | C (>500)
13 | COC[C@@]1(O)CC[C@@]2(C)[C@@H](CC[C@@H]3[C@@H]2CC[C@]2(C)[C@@H](C(=O)Cn4cc(C#N)cn4)CC[C@@H]32)C1 [Compound 142] | > 500 | > 500 | – | –
14 | C[C@@]1(O)CC[C@@]2(C)[C@@H](CC[C@@H]3[C@@H]2CC[C@]2(C)[C@@H](C(=O)Cn4cc(N)cn4)CC[C@@H]32)C1 [Compound 152, 2-(4-amino-1H-pyrazol-1-yl)-1-((3R,5S,8R,9S,10S,13S,14S,17S)-3-hydroxy-3,10,13-trimethylhexadecahydro-1H-cyclopenta[a]phenanthren-17-yl)ethanone] | 100 to 500 | – | 100 to 500 | –
15 | CC(=O)Nc1cnn(CC(=O)[C@H]2CC[C@H]3[C@@H]4CC[C@H]5C[C@](C)(O)CC[C@]5(C)[C@H]4CC[C@]23C)c1 [Compound 153, N-(1-(2-((3R,5S,8R,9S,10S,13S,14S,17S)-3-hydroxy-3,10,13-trimethylhexadecahydro-1H-cyclopenta[a]phenanthren-17-yl)-2-oxoethyl)-1H-pyrazol-4-yl)acetamide] | 100 to 500 | – | 100 to 500 | –
16 | C[C@@]1(O)CC[C@@]2(C)[C@@H](CC[C@@H]3[C@@H]2CC[C@]2(C)[C@@H](C(=O)Cn4nc5cc(F)cc(F)c5n4)CC[C@@H]32)C1 [Compound 234] | – | 100 to 500 | – | –
17 | C[C@@]1(O)CC[C@@]2(C)[C@@H](CC[C@@H]3[C@@H]2CC[C@]2(C)[C@@H](C(=O)Cn4cc5ccc(F)cc5n4)CC[C@@H]32)C1 [Compound 237] | – | – | 10 to 50 | –
18 | C[C@@]1(O)CC[C@@]2(C)[C@@H](CC[C@@H]3[C@@H]2CC[C@]2(C)[C@@H](C(=O)Cn4ncc5ccc(F)cc54)CC[C@@H]32)C1 [Compound 238] | – | – | 50 to 100 | –
19 | C[C@@]1(O)CC[C@@]2(C)[C@@H](CC[C@@H]3[C@@H]2CC[C@]2(C)[C@@H](C(=O)Cn4cc5cc(F)ccc5n4)CC[C@@H]32)C1 [Compound 239] | – | – | 10 to 50 | –
20 | C[C@@]1(O)CC[C@@]2(C)[C@@H](CC[C@@H]3[C@@H]2CC[C@]2(C)[C@@H](C(=O)Cn4ncc5cc(F)ccc54)CC[C@@H]32)C1 [Compound 240] | – | – | 10 to 50 | –
21 | C[C@@]1(O)CC[C@@]2(C)[C@@H](CC[C@@H]3[C@@H]2CC[C@]2(C)[C@@H](C(=O)Cn4nc5ccc(F)cc5n4)CC[C@@H]32)C1 [Compound 245] | – | – | 10 to 50 | –
22 | C[C@@]1(O)CC[C@@]2(C)[C@@H](CC[C@@H]3[C@@H]2CC[C@]2(C)[C@@H](C(=O)Cn4nc5ccc(F)cc5n4)CC[C@@H]32)C1 [Compound 246] | – | – | < 10 | –
23 | CSc1ccc2nnn(CC(=O)[C@H]3CC[C@H]4[C@@H]5CC[C@H]6C[C@](C)(O)CC[C@]6(C)[C@H]5CC[C@]34C)c2c1 [Compound 248] | – | – | < 10 | –
24 | C[C@@]1(O)CC[C@@]2(C)[C@@H](CC[C@@H]3[C@@H]2CC[C@]2(C)[C@@H](C(=O)Cc4cccc(F)c4)CC[C@@H]32)C1 [Compound 257] | – | – | 100 to 500 | –
